Results from patent US10995068B2, “Synthetic sphingolipid-like molecules, drugs, methods of their synthesis and methods of treatment” (The Regents of the University of California, priority 2015, dated 2021).

Experiments:
PC3 cells = assay: Phosphorylation in intact cells by UPLC-MS/MS, PC3; assay type: in vitro ADME, human; conditions: 10 μM, 16 h incubation, percent of total compound recovered by UPLC-MS/MS
Method: Mass spectrometric quantification: One million PC3 or 5 million SW620 cells in one well of a 6 well plate are treated with 10 μM FTY720 or 5 for 16 h. Media (100 μl) is removed from the well and combined with 100 μl of acetonitrile. Cells are collected by scraping, pelleted, and re-suspended in 100 μl of HPLC-grade water followed by the addition of 100 μl acetonitrile. Seventy-five nanograms of the compounds not being quantified (FTY720 and FTY720-P for analysis of the phosphorylation of 5, or 5 and 5-P for the analysis of FTY720/FYT720-P) is added to serve as an internal standard to allow correction for loss of compound during sample preparation. […] Insoluble material is again removed by centrifugation and the supernatant analyzed for compound content. Twenty microliters of this de-proteinated sample is analyzed by UPLC-MS/MS (Waters Micromass Quattro Premier XE) equipped with a C18 reversed phase column (Waters) using an acetonitrile (+0.2% acetic acid) gradient elution. […] The cone voltages are 30V for FTY720 and 5, and 20V for FTY720-P and 5-P. A standard curve is generated using pure compounds to allow for quantification; standard curves were linear from 50-1000 ng/ml with an R^2 of 0.98 or greater. […]

[1] = system: mouse prostate cancer epithelial cells (mPCE); assay: LDL receptor, LDL uptake and lipid droplets in mPCE cells; assay type: cell-based
Method: To determine the sensitivity, SH-BC-893 was evaluated in a validated genetically-engineered mouse model for invasive castration-resistant prostate cancer that lacks p53 and PTEN expression exclusively in the prostate (pDKO) (Wu X, et al. Am J Clin Exp Urol. 2014; 2(2):111-20; Schwarzenböck S, et al. Theranostics. 2012; 2(3):318-330; Chen Z, et al. Nature. 2005; 436(7051):725-730; the disclosures of which are herein incorporated by reference). […] SH-BC-893, however, still produced a phenotype consistent with starvation as the bound NADH fraction increased and cell permeant nutrients protected mPCE cells from death (FIGS. 65A and 65C). Prostate cancer cells depend on exogenous LDL for growth and survival. […]
Light Microscopy: Brightfield and epifluorescence microscopy were conducted using a Nikon TE2000-S fluorescence microscope; confocal microscopy was performed on a Zeiss LSM780 confocal microscope or Nikon Eclipse Ti spinning disk confocal microscope. […] Co-localization was determined using JACoP plugin in ImageJ software. Macropinocytosis was measured after 16 h incubation in serum-free DMEM. p53−/−; LSL-K-RasG12D MEFs before (LSL) or after (KRasG12D) introduction of Cre were serum starved for 16 h and then treated with macropinocytosis inhibitor 5-(N-ethyl-N-isopropyl) amiloride (EIPA, 75 μM) for 1 h or SH-BC-893 for 6 h. […]

## CCCCCCCCc1ccc([C@H]2CCN[C@@H]2CO)cc1.Cl [Compound 5, (2S,3R)-2-(hydroxymethyl)-3-(4-octylphenyl)Pyrrolidinium chloride]
PC3 cells
  efficiency of phosphorylation in intact cells: phosphorylated slightly more efficiently than FTY720
[1]
  surface levels of the LDL receptor (LDLr), LDL uptake, and lipid droplet accumulation: dramatically decreased
